Experimental data from patent US10335392B2, “Cyclic compounds useful as modulators of TNF α” (BRISTOL-MYERS SQUIBB COMPANY, priority 2015, dated 2019).

What follows are compounds tested against TNFα (Homo sapiens (Human), UniProt P01375) (assay: TNF induced HEK-Blue assay). Conditions: TNFα 0.5 ng/ml; HEK-Blue-CD40L cells, NF-kB-driven secreted alkaline phosphatase reporter; 18 h.
Chain of TNFα (P01375 77-233): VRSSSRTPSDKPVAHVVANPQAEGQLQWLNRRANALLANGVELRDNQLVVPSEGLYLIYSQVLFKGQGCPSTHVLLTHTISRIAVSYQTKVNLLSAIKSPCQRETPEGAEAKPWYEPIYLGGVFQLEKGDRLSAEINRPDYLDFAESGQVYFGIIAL
Format: cell-based
Protocol: TNF or CD40L-Induced HEK-Blue Assay
Test compounds serially diluted in DMSO were plated in an assay plate (LABCYTE, Cat. # LP-0200) at final concentrations ranging from 0.004 μM to 25 μM. TNFα (final concentration 0.5 ng/ml) or CD40L (final concentration 30 ng/ml) in assay buffer [DMEM, 4.5 g/l glucose (Gibco, Cat. 21063-029), 10% FBS (Sigma, F4135), 1% Penicillin-Streptomycin (Gibco, Cat. 15140-122), 1% Anti-Anti (Gibco, Cat. 15240-112) and 2 mM L-glutamine (Gibco, Cat. 25030-081)] was then added to the assay plate. After a 30 minute pre-incubation at 37° C. and 5% CO2, HEK-Blue™-CD40L cells (INVIVOGEN, Cat. Code hkb-cd40) containing a NF-kB-driven secreted alkaline phosphatase reporter gene were seeded into the assay plate at a density of 20,000 cells per well. This plate was then incubated for 18 h at 37° C. and 5% CO2. Secreted alkaline phosphatase expression was measured using QUANTI-Blue™ (INVIVOGEN, Cat. Code rep-qb1) according to manufacturer's specifications and the assay plate was read on a PerkinElmer Envision at 620 nm.
Inhibition data for the test compound over a range of concentrations was plotted as percentage inhibition of the test compound (100%=maximum inhibition). IC50 values were determined after correcting for background [(sample read−mean of low control)/(mean of high control−mean of low control)] where by the low control is DMSO without stimulation and high control is DMSO with stimulation. The IC50 is defined as the concentration of test compound which produces 50% inhibition and was quantified using the 4 parameter logistic equation to fit the data.
With `CC(C)(O)c1ncc(-c2cc3c(cc2F)nc2n3[C@@H](c3ccccc3OC(F)F)[C@H]3C[C@@H]23)cn1` (racemic) [Example 1, rac-2-(5-((1aR,8R,8aS)-8-(2-(difluoromethoxy)phenyl)-4-fluoro-1,1a,8,8a-tetrahydrobenzo[d]cyclopropa[3,4]pyrrolo[1,2-a]imidazol-5-yl)pyrimidin-2-yl) propan-2-ol] the IC50 was < 1 µM.
For `Fc1cc2nc3n(c2cc1Br)[C@@H](c1ccccc1OC(F)F)[C@@H]1C[C@H]31` (racemic) [Example 11, rac-(1aR,8S,8aS)-5-bromo-8-(2-(difluoromethoxy)phenyl)-4-fluoro-1,1a,8,8a-tetrahydrobenzo[d]cyclopropa[3,4]pyrrolo[1,2-a]imidazole], the IC50 was 10 to 25 µM.
In the case of `CC(C)(O)c1ncc(-c2cc3c(cc2F)nc2n3[C@@H](c3ccccc3OC(F)F)[C@@H]3C[C@H]23)cn1` (racemic) [Example 20, rac-2-(5-((1aR,8S,8aS)-8-(2-(difluoromethoxy)phenyl)-4-fluoro-1,1a,8,8a-tetrahydrobenzo[d]cyclopropa[3,4]pyrrolo[1,2-a]imidazol-5-yl)pyrimidin-2-yl)propan-2-ol], the IC50 is reported as < 1 µM.
Work on `CC(C)(O)c1ncc(-c2cc3c(cc2F)nc2n3[C@@H](c3ccccc3Oc3ccccc3)[C@@H]3C[C@H]23)cn1` (racemic) [Example 23, rac-2-(5-((1aR,8S,8aS)-4-fluoro-8-(2-phenoxyphenyl)-1,1a,8,8a-tetrahydrobenzo[d]cyclopropa[3,4]pyrrolo[1,2-a]imidazol-5-yl)pyrimidin-2-yl)propan-2-ol] yielded an IC50 of 1 to 10 µM.
With `CC(C)(O)c1ncc(-c2cc3c(cc2F)nc2n3[C@@H](c3ccccc3Oc3ccccc3)[C@H]3C[C@@H]23)cn1` (racemic) [Example 24, rac-2-(5-((1aR,8R,8aS)-4-fluoro-8-(2-phenoxyphenyl)-1,1a,8,8a-tetrahydrobenzo[d]cyclopropa[3,4]pyrrolo[1,2-a]imidazol-5-yl)pyrimidin-2-yl)propan-2-ol] the IC50 was 1 to 10 µM.
With `CC(C)(O)c1ncc(-c2cc3c(cc2F)nc2n3[C@@H](c3ccccc3OCc3ccccc3)[C@@H]3C[C@H]23)cn1` (racemic) [Example 25, rac-2-(5-((1aR,8S,8aS)-8-(2-(benzyloxy)phenyl)-4-fluoro-1,1a,8,8a-tetrahydrobenzo[d]cyclopropa[3,4]pyrrolo[1,2-a]imidazol-5-yl)pyrimidin-2-yl)propan-2-ol] the IC50 was 1 to 10 µM.
`CC(C)(O)c1ncc(-c2cc3c(cc2F)nc2n3[C@@H](c3ccccc3OCc3ccccc3)[C@H]3C[C@@H]23)cn1` (racemic) [Example 26, rac-2-(5-((1aR,8R,8aS)-8-(2-(benzyloxy)phenyl)-4-fluoro-1,1a,8,8a-tetrahydrobenzo[d]cyclopropa[3,4]pyrrolo[1,2-a]imidazol-5-yl)pyrimidin-2-yl)propan-2-ol] gave an IC50 of 10 to 25 µM.
Work on `COc1ccc(-c2ccc3nc4n(c3c2)[C@@H](c2ccccc2)[C@H]2CNC[C@@H]42)cn1` (racemic) [Example 36, rac-(3aR,10S,10aS)-7-(6-methoxypyridin-3-yl)-10-phenyl-1,2,3,3a,10,10a-hexahydrobenzo[d]pyrrolo[3′,4′:3,4]pyrrolo[1,2-a]imidazole] yielded an IC50 of 10 to 25 µM.
In the case of `COc1ccc(-c2ccc3nc4n(c3c2)[C@@H](c2ccccc2)[C@H]2CN(C(=O)NC(C)(C)C)C[C@@H]42)cn1` (racemic) [Example 37, rac-(3aR,10S,10aS)—N-(tert-butyl)-7-(6-methoxypyridin-3-yl)-10-phenyl-3,3a,10,10a-tetrahydrobenzo[d]pyrrolo[3′,4′:3,4]pyrrolo[1,2-a]imidazole-2(1H)-carboxamide], the IC50 is reported as 1 to 10 µM.
Work on `COc1ccc(-c2ccc3nc4n(c3c2)[C@@H](c2ccccc2)[C@H]2CN(C(C)=O)C[C@@H]42)cn1` (racemic) [Example 38, rac-1-((3aR,10S,10aS)-7-(6-methoxypyridin-3-yl)-10-phenyl-3,3a,10,10a-tetrahydrobenzo[d]pyrrolo[3′,4′:3,4]pyrrolo[1,2-a]imidazol-2(1H)-yl)ethan-1-one] yielded an IC50 of 10 to 25 µM.
In the case of `CCNC(=O)N1C[C@H]2[C@@H](C1)c1nc3ccc(-c4ccc(OC)nc4)cc3n1[C@H]2c1ccccc1` (racemic) [Example 39, rac-(3aR,10S,10aS)—N-ethyl-7-(6-methoxypyridin-3-yl)-10-phenyl-3,3a,10,10a-tetrahydrobenzo[d]pyrrolo[3′,4′:3,4]pyrrolo[1,2-a]imidazole-2(1H)-carboxamide], the IC50 is reported as 1 to 10 µM.
`COc1ccc(-c2ccc3nc4n(c3c2)[C@@H](c2ccccc2)[C@H]2CN(C(=O)OC(C)(C)C)C[C@@H]42)cn1` (racemic) [Example 40, rac-tert-butyl (3aR,10S,10aS)-7-(6-methoxypyridin-3-yl)-10-phenyl-3,3a,10,10a-tetrahydrobenzo[d]pyrrolo[3′,4′:3,4]pyrrolo[1,2-a]imidazole-2(1H)-carboxylate] gave an IC50 of 10 to 25 µM.
In the case of `COc1ccc(-c2ccc3nc4n(c3c2)[C@@H](c2ccccc2)[C@H]2CN(C(=O)c3ccccc3)C[C@@H]42)cn1` (racemic) [Example 41, rac-((3aR,10S,10aS)-7-(6-methoxypyridin-3-yl)-10-phenyl-3,3a,10,10a-tetrahydrobenzo[d]pyrrolo[3′,4′:3,4]pyrrolo[1,2-a]imidazol-2(1H)-yl)(phenyl)methanone], the IC50 is reported as 10 to 25 µM.
Compound `COc1ccc(-c2ccc3nc4n(c3c2)[C@@H](c2ccccc2)[C@H]2CC=CC[C@@H]42)cn1` (racemic) [Example 42, rac-(4aR,11R,11aS)-8-(6-methoxypyridin-3-yl)-1-phenyl-4,4a,11,11a-tetrahydro-1H-benzo[4,5]imidazo[2,1-a]isoindole] has an IC50 of 10 to 25 µM.
For `CNC(=O)c1ccc(-c2ccc3nc4n(c3c2)[C@@H](c2cc(C)ccc2C)[C@H]2[C@H](c3ccccc3)[C@@H]42)cn1` (racemic) [Example 43, rac-5-((1R,1aS,8S,8aR)-8-(2,5-dimethylphenyl)-1-phenyl-1,1a,8,8a-tetrahydrobenzo[d]cyclopropa[3,4]pyrrolo[1,2-a]imidazol-5-yl)-N-methylpicolinamide], the IC50 was 10 to 25 µM.
In the case of `CC(C)(O)c1ncc(-c2cc3c(cc2F)nc2n3[C@H](c3ccccc3OC(F)F)[C@H]3C[C@@H]23)cn1` (stereo in doubt) [Example 21, 2-(5-((1aR,8S,8aS)-8-(2-(difluoromethoxy)phenyl)-4-fluoro-1,1a,8,8a-tetrahydrobenzo[d]cyclopropa[3,4]pyrrolo[1,2-a]imidazol-5-yl)pyrimidin-2-yl)propan-2-ol], the IC50 is reported as < 1 µM.
For `CC(C)(O)c1ncc(-c2cc3c(cc2F)nc2n3[C@@H](c3ccccc3OC(F)F)[C@H]3C[C@@H]23)cn1` [Example 2, 2-(5-((1aR,8R,8aS)-8-(2-(difluoromethoxy)phenyl)-4-fluoro-1,1a,8,8a-tetrahydrobenzo[d]cyclopropa[3,4]pyrrolo[1,2-a]imidazol-5-yl)pyrimidin-2-yl)propan-2-ol], the IC50 was < 1 µM.
In the case of `CC(C)(O)c1ncc(-c2cc3c(cc2F)nc2n3[C@H](c3ccccc3OC(F)F)[C@@H]3C[C@H]23)cn1` [Example 3, 2-(5-((1aS,8S,8aR)-8-(2-(difluoromethoxy)phenyl)-4-fluoro-1,1a,8,8a-tetrahydrobenzo[d]cyclopropa[3,4]pyrrolo[1,2-a]imidazol-5-yl)pyrimidin-2-yl)propan-2-ol], the IC50 is reported as < 1 µM.
With `O=C(O)CN1CCN(c2ncc(-c3cc4c(cc3F)nc3n4[C@@H](c4ccccc4OC(F)F)[C@H]4C[C@@H]34)cn2)CC1` [Example 4, 2-(4-(5-((1aR,8R,8aS)-8-(2-(difluoromethoxy)phenyl)-4-fluoro-1,1a,8,8a-tetrahydrobenzo[d]cyclopropa[3,4]pyrrolo[1,2-a]imidazol-5-yl)pyrimidin-2-yl)piperazin-1-yl)acetic acid] the IC50 was < 1 µM.
In the case of `NS(=O)(=O)c1ccc(-c2cc3c(cc2F)nc2n3[C@@H](c3ccccc3OC(F)F)[C@H]3C[C@@H]23)cc1` [Example 5, 4-((1aR,8R,8aS)-8-(2-(difluoromethoxy)phenyl)-4-fluoro-1,1a,8,8a-tetrahydrobenzo[d]cyclopropa[3,4]pyrrolo[1,2-a]imidazol-5-yl)benzenesulfonamide], the IC50 is reported as < 1 µM.
In the case of `Fc1cc2nc3n(c2cc1-c1cnc(N2CCOCC2)nc1)[C@@H](c1ccccc1OC(F)F)[C@H]1C[C@@H]31` [Example 6, 4-(5-((1aR,8R,8aS)-8-(2-(difluoromethoxy)phenyl)-4-fluoro-1,1a,8,8a-tetrahydrobenzo[d]cyclopropa[3,4]pyrrolo[1,2-a]imidazol-5-yl)pyrimidin-2-yl)morpholine], the IC50 is reported as < 1 µM.
In the case of `NC(=O)c1ccc(-c2cc3c(cc2F)nc2n3[C@@H](c3ccccc3OC(F)F)[C@H]3C[C@@H]23)cn1` [Example 7, 5-((1aR,8R,8aS)-8-(2-(difluoromethoxy)phenyl)-4-fluoro-1,1a,8,8a-tetrahydrobenzo[d]cyclopropa[3,4]pyrrolo[1,2-a]imidazol-5-yl)picolinamide], the IC50 is reported as < 1 µM.
